Laboratory results taken from US12492188B2, “1H-benzo[D]imidazole derivatives as TLR9 inhibitors for the treatment of fibrosis” (BRISTOL-MYERS SQUIBB COMPANY, priority 2020, dated 2025).
Like-named read-outs stand apart in the source and are kept apart here.

What was measured:
Assay type in all cases: cell-based
human TLR9 = biological target: T1, human TLR9 (Homo sapiens, UniProt Q9NR96); test: TLR9 inhibition reporter assay (HEK-Blue cells, secreted embryonic alkaline phosphatase reporter)
T1 construct: host or cells: HEK-Blue cells (HEK293-derived reporter line)
T1 sequence (Q9NR96 26-1032): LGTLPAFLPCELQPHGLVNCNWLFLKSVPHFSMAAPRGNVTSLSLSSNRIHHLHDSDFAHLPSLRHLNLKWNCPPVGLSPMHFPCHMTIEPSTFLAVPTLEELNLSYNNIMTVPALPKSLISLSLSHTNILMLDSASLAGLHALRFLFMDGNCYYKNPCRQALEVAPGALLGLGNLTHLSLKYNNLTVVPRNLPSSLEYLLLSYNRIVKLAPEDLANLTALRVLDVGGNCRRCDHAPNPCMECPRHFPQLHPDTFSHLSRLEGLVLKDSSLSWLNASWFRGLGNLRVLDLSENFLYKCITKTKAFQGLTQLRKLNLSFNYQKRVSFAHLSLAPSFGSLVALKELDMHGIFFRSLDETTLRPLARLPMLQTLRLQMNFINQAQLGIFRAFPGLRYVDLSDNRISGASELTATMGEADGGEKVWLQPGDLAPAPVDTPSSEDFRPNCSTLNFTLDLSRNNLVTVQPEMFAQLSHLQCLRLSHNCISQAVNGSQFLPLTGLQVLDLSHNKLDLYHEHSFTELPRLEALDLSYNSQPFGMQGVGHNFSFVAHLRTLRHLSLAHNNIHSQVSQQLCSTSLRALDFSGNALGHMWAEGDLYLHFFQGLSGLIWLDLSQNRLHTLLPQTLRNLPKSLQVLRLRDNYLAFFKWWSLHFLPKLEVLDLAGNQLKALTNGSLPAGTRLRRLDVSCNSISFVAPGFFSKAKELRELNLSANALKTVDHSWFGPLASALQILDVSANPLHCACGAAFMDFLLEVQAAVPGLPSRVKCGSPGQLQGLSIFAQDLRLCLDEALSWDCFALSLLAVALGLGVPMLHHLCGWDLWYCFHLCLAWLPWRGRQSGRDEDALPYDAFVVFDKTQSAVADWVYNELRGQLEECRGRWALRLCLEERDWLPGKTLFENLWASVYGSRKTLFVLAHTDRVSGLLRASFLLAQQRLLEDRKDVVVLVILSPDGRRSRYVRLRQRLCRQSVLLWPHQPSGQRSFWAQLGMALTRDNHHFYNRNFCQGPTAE
In short: (§1)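 Inhibitors are tested in dose response (0.05 nM–50 μM) on HEK-Blue reporter cells expressing human TLR7, TLR8 or TLR9. After 30 min at room temperature, each line is stimulated with its own agonist (gardiquimod 7.5 μM, R848 15.9 μM or ODN2006 5 nM, final) and SEAP is measured 22 h later.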

human TLR7 = biological target: T2, human TLR7 (Homo sapiens, UniProt Q9NYK1); test: TLR7 inhibition reporter assay (HEK-Blue cells, secreted embryonic alkaline phosphatase reporter); details: HEK-Blue cells overexpressing human TLR7, stimulated with gardiquimod 7.5 μM; read-out: TLR 7 IC50
T2 construct: host or cells: HEK-Blue cells (HEK293-derived reporter line)
T2 sequence (Q9NYK1 27-1049): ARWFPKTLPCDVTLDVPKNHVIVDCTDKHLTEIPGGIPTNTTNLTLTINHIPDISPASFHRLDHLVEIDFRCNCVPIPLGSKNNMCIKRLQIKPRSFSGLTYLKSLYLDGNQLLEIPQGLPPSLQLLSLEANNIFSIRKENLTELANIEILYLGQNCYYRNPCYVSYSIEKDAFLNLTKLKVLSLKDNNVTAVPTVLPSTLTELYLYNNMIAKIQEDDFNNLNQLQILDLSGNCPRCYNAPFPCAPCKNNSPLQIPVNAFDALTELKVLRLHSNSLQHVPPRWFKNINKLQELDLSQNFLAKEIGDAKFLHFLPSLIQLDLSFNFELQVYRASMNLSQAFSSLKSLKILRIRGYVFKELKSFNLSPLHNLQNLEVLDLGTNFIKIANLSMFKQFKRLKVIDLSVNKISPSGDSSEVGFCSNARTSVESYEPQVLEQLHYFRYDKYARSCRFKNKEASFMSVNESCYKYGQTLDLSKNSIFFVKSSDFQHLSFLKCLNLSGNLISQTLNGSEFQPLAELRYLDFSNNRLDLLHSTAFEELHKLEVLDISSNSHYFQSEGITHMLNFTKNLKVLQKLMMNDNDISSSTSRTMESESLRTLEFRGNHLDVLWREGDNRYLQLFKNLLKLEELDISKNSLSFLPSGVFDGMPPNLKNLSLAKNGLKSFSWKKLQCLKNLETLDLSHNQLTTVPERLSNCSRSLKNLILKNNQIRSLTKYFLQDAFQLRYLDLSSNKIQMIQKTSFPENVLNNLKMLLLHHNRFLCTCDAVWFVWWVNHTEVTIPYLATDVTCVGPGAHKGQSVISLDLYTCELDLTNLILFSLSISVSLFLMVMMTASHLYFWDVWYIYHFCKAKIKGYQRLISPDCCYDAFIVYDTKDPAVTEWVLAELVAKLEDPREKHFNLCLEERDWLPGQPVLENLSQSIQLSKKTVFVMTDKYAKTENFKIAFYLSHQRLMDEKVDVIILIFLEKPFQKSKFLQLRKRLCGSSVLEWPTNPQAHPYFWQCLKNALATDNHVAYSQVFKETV
In short: as §1

human TLR8 = biological target: T3, human TLR8 (Homo sapiens, UniProt Q9NR97); test: TLR8 inhibition reporter assay (HEK-Blue cells, secreted embryonic alkaline phosphatase reporter); details: HEK-Blue cells overexpressing human TLR8, stimulated with R848 15.9 μM; read-out: TLR 8 IC50
T3 construct: host or cells: HEK-Blue cells (HEK293-derived reporter line)
T3 sequence (Q9NR97 27-1041): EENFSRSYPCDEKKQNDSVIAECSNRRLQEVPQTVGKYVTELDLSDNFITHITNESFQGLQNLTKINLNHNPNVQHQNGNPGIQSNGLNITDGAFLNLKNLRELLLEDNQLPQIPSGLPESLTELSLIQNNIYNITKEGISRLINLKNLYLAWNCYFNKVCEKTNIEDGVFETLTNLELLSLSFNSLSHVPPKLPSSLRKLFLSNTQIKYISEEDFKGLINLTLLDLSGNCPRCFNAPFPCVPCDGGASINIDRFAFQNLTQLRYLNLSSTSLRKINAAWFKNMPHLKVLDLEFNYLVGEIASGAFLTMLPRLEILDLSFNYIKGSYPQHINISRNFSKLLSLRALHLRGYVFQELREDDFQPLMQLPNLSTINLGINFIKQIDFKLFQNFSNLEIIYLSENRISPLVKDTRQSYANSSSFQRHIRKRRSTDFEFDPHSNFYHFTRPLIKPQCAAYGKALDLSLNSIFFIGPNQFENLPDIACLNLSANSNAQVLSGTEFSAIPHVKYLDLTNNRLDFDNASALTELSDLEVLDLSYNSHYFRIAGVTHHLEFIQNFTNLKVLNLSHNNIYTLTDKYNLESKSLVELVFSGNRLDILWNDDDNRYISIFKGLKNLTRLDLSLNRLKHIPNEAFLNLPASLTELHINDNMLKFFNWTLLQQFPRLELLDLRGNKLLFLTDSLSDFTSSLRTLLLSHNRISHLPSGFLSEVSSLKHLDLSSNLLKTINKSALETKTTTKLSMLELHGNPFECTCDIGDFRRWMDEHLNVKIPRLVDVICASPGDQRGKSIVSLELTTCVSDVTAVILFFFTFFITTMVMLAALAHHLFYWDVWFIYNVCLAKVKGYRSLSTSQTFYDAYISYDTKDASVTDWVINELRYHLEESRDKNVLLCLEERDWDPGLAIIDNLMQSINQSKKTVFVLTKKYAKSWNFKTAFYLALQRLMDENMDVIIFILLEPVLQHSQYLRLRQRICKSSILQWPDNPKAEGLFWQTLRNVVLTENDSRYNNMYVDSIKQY
In short: as §1

[1] = HEK-Blue cells overexpressing human TLR9, stimulated with ODN2006 5 nM, read-out: TLR 9 IC50
[2] = HEK-Blue cells overexpressing human TLR9, stimulated with ODN2006 5 nM, 22 hour incubation, reporter readout
[3] = HEK-Blue human TLR9 reporter cells

Row | Structure (SMILES) | IC50 (human TLR9) | IC50 (human TLR9; [1]) | IC50 (human TLR7) | IC50 (human TLR8) | IC50 (human TLR9; [2]) | IC50 (human TLR9; [3])
1 | Cn1c(-c2ccc(S(C)(=O)=O)cc2)nc2c(F)c(C3CCN(C4CCN(C5CCOCC5)CC4)CC3)ccc21 [Example 187, 4-fluoro-1-methyl-2-(4-(methylsulfonyl)phenyl)-5-(1′-(tetrahydro-2H-pyran-4-yl)-[1,4′-bipiperidin]-4-yl)-1H-benzo[d]imidazole] | 520 nM | 523 nM | > 50000 nM | > 50000 nM |  | 
2 | Cn1c(-c2ccc(S(C)(=O)=O)cc2)nc2cc(C3CCN(C4CCN(C5CC5)CC4)CC3)cc(F)c21 [Example 202, 5-(1′-cyclopropyl-[1,4′-bipiperidin]-4-yl)-7-fluoro-1-methyl-2-(4-(methylsulfonyl)phenyl)-1H-benzo[d]imidazole] | 500 nM | 502 nM | > 50000 nM | > 50000 nM |  | 
3 | Cc1cc(-c2ccc(N3CCC(N(C)C)CC3)cc2)cc2c1nc(-c1ccc(S(C)(=O)=O)cc1)n2C [Example 368, 1-(4-(1,4-dimethyl-2-(4-(methylsulfonyl)phenyl)-1H-benzo[d]imidazol-6-yl)phenyl)-N,N-dimethylpiperidin-4-amine] |  | 414 nM | 1400 nM | 1700 nM | 410 nM | 
4 | Cc1cc(C2CCN(C3CC4CCC(C3)N4CC(C)C)CC2)cc2c1nc(-c1ccc(S(C)(=O)=O)c(F)c1)n2C (stereo not shown) [Example 342, 2-(3-fluoro-4-(methylsulfonyl)phenyl)-6-(1-(8-isobutyl-8-azabicyclo[3.2.1]octan-3-yl)piperidin-4-yl)-1,4-dimethyl-1H-benzo[d]imidazole] |  | 123 nM | 12700 nM | > 25000 nM |  | 120 nM
5 | Cc1cc(C2CCN(C3CC4CCC(C3)N4CC3CC3)CC2)cc2[nH]c(-c3ccc(S(C)(=O)=O)cc3)nc12 (stereo not shown) [Example 336, 6-(1-(8-(cyclopropylmethyl)-8-azabicyclo[3.2.1]octan-3-yl)piperidin-4-yl)-4-methyl-2-(4-(methylsulfonyl)phenyl)-1H-benzo[d]imidazole] |  | 77 nM | 25400 nM | > 50000 nM |  | 77 nM
6 | CC(C)N1C2CCC1CC(N1CCC(c3cc(F)c4nc(-c5ccc(S(C)(=O)=O)cc5)n(C5CC5)c4c3)CC1)C2 (single isomer, unassigned) [Example 116, 1-cyclopropyl-4-fluoro-6-(1-(8-isopropyl-8-azabicyclo[3.2.1]octan-3-yl)piperidin-4-yl)-2-(4-(methylsulfonyl)phenyl)-1H-benzo[d]imidazole] |  |  | 3500 nM | > 50000 nM | 51 nM | 
7 | COc1ccc(-c2nc3cc(C4CCN(C5CCN(C6CC6)CC5)CC4)ccc3n2C(C)C)cc1OC [Example 37, 5-(1′-cyclopropyl-[1,4′-bipiperidin]-4-yl)-2-(3,4-dimethoxyphenyl)-1-isopropyl-1H-benzo[d]imidazole] |  | 388 nM | 7500 nM | > 50000 nM | 390 nM | 

The next lines start with the values.

Row | IC50 (human TLR9) | IC50 (human TLR9; [1]) | IC50 (human TLR7) | IC50 (human TLR8) | IC50 (human TLR9; [2]) | IC50 (human TLR9; [3]) | Structure (SMILES)
8 |  | 108 nM | 7100 nM | > 50000 nM |  | 110 nM | Cn1c(-c2ccc(S(C)(=O)=O)cc2)nc2c(F)cc(C3CCN(C4CC5CCC(C4)N5CC4CC4)CC3)cc21 (single isomer, unassigned) [Example 282, 6-(1-(8-(cyclopropylmethyl)-8-azabicyclo[3.2.1]octan-3-yl)piperidin-4-yl)-4-fluoro-1-methyl-2-(4-(methylsulfonyl)phenyl)-1H-benzo[d]imidazole]
9 | 930 nM | 934 nM | > 25000 nM | > 25000 nM |  |  | Cc1cc(C2CCN(C3CC4CCC(C3)N4C3COC3)CC2)cc2c1nc(-c1ccc(S(C)(=O)=O)cc1)n2C (single isomer, unassigned) [Example 159, 1,4-dimethyl-2-(4-(methylsulfonyl)phenyl)-6-(1-(8-(oxetan-3-yl)-8-azabicyclo[3.2.1]octan-3-yl)piperidin-4-yl)-1H-benzo[d]imidazole]
10 |  | 17 nM | 9500 nM | > 50000 nM |  | 17 nM | Cc1cc(C2CCN(C3CCCN(C4CCOCC4)CC3)CC2)cc2c1nc(-c1ccc(S(C)(=O)=O)cc1)n2C (single isomer, unassigned) [Example 306, 1,4-dimethyl-2-(4-(methylsulfonyl)phenyl)-6-(1-(1-(tetrahydro-2H-pyran-4-yl)azepan-4-yl)piperidin-4-yl)-1H-benzo[d]imidazole]
11 | 160 nM | 1610 nM | > 25000 nM | > 25000 nM |  |  | Cc1cc(C2CCN(C3CC4CCC(C3)N4C3COC3)CC2)cc2c1nc(-c1ccc(S(C)(=O)=O)cc1)n2C (single isomer, unassigned) [Example 158, 1,4-dimethyl-2-(4-(methylsulfonyl)phenyl)-6-(1-(8-(oxetan-3-yl)-8-azabicyclo[3.2.1]octan-3-yl)piperidin-4-yl)-1H-benzo[d]imidazole]
